Experimental data as given in PMC10224004, “Modulation of Distribution and Diffusion through the Lipophilic Membrane with Cyclodextrins Exemplified by a Model Pyridinecarboxamide Derivative” (Pharmaceutics, 2023).
Where “and” joins values, the source holds several entries; their conditions need not be identical. Identical values can stand only once.

How the values were obtained:
[1] = Shake-flask distribution in the n-hexane/buffer pH 7.4 system; format: physicochemical
Method: (§1) Apparent distribution coefficients of the compounds were measured in two systems: 1-octanol/buffer pH 7.4 and n-hexane/buffer pH 7.4 by the shake-flask technique at 310.2 ± 0.5 K in the absence (for IPN, INZ and iNAM) and in the presence of cyclodextrins (HP-β-CD and M-β-CD) in the aqueous phase (for IPN only). The concentrations of cyclodextrins were: 0.0115 M, 0.025 M and 0.035 M. The experiments were carried out according to the literature. In brief, the following experimental procedure was performed. Aqueous buffer pH 7.4 and organic solvent (1-octanol or n-hexane) were mixed during 48 h to obtain mutually saturated phases. The stock solutions containing the drug were prepared in buffer pH 7.4 saturated with the organic solvent. Both aliquots of the aqueous stock solution and organic solvent were placed in screwed glass vials and mixed at 310.2 ± 0.5 K during 3 days. The concentrations of the stock solutions were approximately 6.0 × 10^−3 M for both systems. The volumes of the phases were 3:3 in the 1-octanol/buffer pH 7.4 systems and 6:3 and 10:3 in the n-hexane/buffer pH 7.4 systems, without and with cyclodextrins, respectively. After mixing, the equilibrium was achieved; the vials were maintained at 310.2 ± 0.5 K, and the phases were separated from each other. The drug concentrations were determined using spectrophotometer (Cary-50 Varian, Palo Alto, CA, USA, Software Version 3.00 (339)). The experiments were carried out at least four-fold with an accuracy of 2–4%. The distribution coefficients were calculated using the following equation:(6) DappOrg/buf=C2Org/buf⋅V^buf/Org/C2buf/Org⋅V^Org/buf where DappOrg/buf is the distribution coefficient calculated from the concentrations of the compounds expressed in molar scale, C2Org/buf and C2buf/Org are the molar concentrations of the drug in the mutually saturated organic solvent/buffer and buffer/organic solvent phases, respectively, and V^buf/Org and V^Org/buf are the volumes of the saturated buffer and organic solvent phases, respectively. In addition, the ΔlogD parameters were estimated taking into account the distribution coefficients both in the 1-octanol/buffer pH 7.4 and n-hexane/buffer H 7.4 systems. As Abraham et al. stated, the difference between the distribution parameters in these systems ( ΔlogD ) can be applied to assess the specific interactions including a hydrogen-bonding impact to the drug transport properties and can be calculated as follows:(7) ΔlogD=logDappoct/buf−logDapphex/buf

[2] = Shake-flask solubility in 1-octanol and dissolution thermodynamics; format: physicochemical; settings: T 290.2 K; value = S2 × 10^1
[3] = ΔlogD parameter (logDapp oct/buf − logDapp hex/buf); format: physicochemical; settings: 310.2 K; pH 7.4; cyclodextrin in buffer phase as in the label
Method: as §1, with “The volumes of the phases were 3:3 in the 1-octanol/buffer pH 7.4 systems and 6:3 and 10:3 in the n-hexane/buffer pH 7.4 systems, without and with cyclodextrins, respectively. After mixing, the equilibrium was achieved; the vials were maintained at 310.2 ± 0.5 K, and the phases were separated from each other.” left out, “The experiments were carried out at least four-fold with an accuracy of 2–4%.” left out, “In addition, the ΔlogD parameters were estimated taking into account the distribution coefficients both in the 1-octanol/buffer pH 7.4 and n-hexane/buffer H 7.4 systems.” left out

[4] = Association constant of IPN with cyclodextrin by phase-distribution method; format: binding; settings: 310.2 K
Method: The association constants (KC) of IPN with cyclodextrins were determined by a partition coefficient (phase-distribution) method. Possible partition of CDs to the 1-octanol or n-hexane phases was assumed to be negligible since both cyclodextrins used in this study have high aqueous solubility (>600 mg∙mL^−1). The KC values of the complexes between the drug and each CD were calculated assuming that in the presence of CD the distribution coefficient ( DappOrg/(buf+CD) ) is defined as:(8) DappOrg/(buf+CD)=C2Org/C2buf(drug)+C2buf(drug•CD) where C2buf(drug) and C2buf(drug•CD) are the concentrations of the drug and drug complex with CD in the aqueous phase. The following equation was applied:(9) DappOrg/(buf+CD)/DappOrg/buf=1+KC⋅CCD where DappOrg/buf and DappOrg/(buf+CD) are the distribution coefficients of a compound in the absence and in the presence of CD in the aqueous phase, respectively. Similarly to the phase-solubility method of the stability constants determination, but bearing in mind an opposite trends in solubility and organic solvent/water partition (the higher the solubility, the lower the distribution coefficient), the following dependence was plotted to obtain the association constant (KC) and the stoichiometric ratio of the complex (α):(10) log(DappOrg/buf−DappOrg/(buf+CD)/DappOrg/buf)=log(KC)+α⋅log(CCD) where CCD is the concentration of cyclodextrin in the aqueous phase of the distribution system and the y-intercept produces log(KC).
To approve the validity of the distribution results interpretation we used the distribution coefficients at different CDs concentrations for the determination of the association constants of IPN with the studied cyclodextrins. As shown by Másson et al. for hydrophilic drugs (a case of IPN), this method can be successfully used for the simultaneous determination of the association constant with cyclodextrins and partition coefficient. The association constants (KC) of IPN with HP-β-CD and M-β-CD were determined according to the phase-distribution method using Equations (8)–(10). To this end, the plots of the dependences (Equation (10)) were constructed and are illustrated in Figure 6.

[5] = Shake-flask distribution in the 1-octanol/buffer pH 7.4 system; format: physicochemical
Method: as §1

[6] = 310.2 K, cyclodextrin in buffer phase as in the label
[7] = from 1-Octanol/Buffer pH 7.4 System
[8] = from n-hexane/buffer pH 7.4 system
[9] = V(oct):V(buf)= 3:3, molar concentration × 10^3

logDapphex/buff [1, 6]: −2.907
Dapphex/buff ·10^4 ([1]; 310.2 K, value = D·10^4, cyclodextrin in buffer phase as in the label): 12.400 ± 0.191 ·10^4
Molar concentration C2 buf/hex ∙10^3 (aqueous phase) ([1]; V(hex):V(buf)= 6:3 without and 10:3 with cyclodextrins, molar concentration × 10^3): 6.46 ∙10^3
Molar concentration C2 hex/buf ∙10^5 (organic phase) ([1]; V(hex):V(buf)= 6:3 without and 10:3 with cyclodextrins, molar concentration × 10^5): 1.60 ∙10^5
Molar solubility S2 × 10^1 in 1-Octanol [2]: 4.09 ± 0.08 × 10^1 (M)
ΔlogD [3]: 3.33
Association constant KC of IPN complex with HP-β-CD [4, 7]: 0.899 ± 0.022
Association constant KC of IPN complex with M-β-CD [4, 7]: 0.479 ± 0.109
α (parameter indicating the complex stoichiometry), IPN with HP-β-CD [4, 7]: 1.004 ± 0.014
α (parameter indicating the complex stoichiometry), IPN with M-β-CD [4, 7]: 1.000 ± 0.065
Association constant KC of IPN complex with HP-β-CD [4, 8]: 1.536 ± 0.128
Association constant KC of IPN complex with M-β-CD [4, 8]: 1.311 ± 0.241
α (parameter indicating the complex stoichiometry), IPN with HP-β-CD [4, 8]: 1.087 ± 0.076
α (parameter indicating the complex stoichiometry), IPN with M-β-CD [4, 8]: 1.057 ± 0.143
Dappoct/buff [5, 6]: 2.651 ± 0.093
logDappoct/buff [5, 6]: 0.423 ± 0.015 and 0.423
Molar concentration C2 buf/oct ∙10^3 (aqueous phase) [5, 9]: 1.69 ∙10^3
Molar concentration C2 oct/buf ∙10^3 (organic phase) [5, 9]: 4.48 ∙10^3
Compound: CC(C)NNC(=O)c1ccncc1 [IPN, N′-isopropyl isonicotinic hydrazide]
